Experimental data taken from EP1880990A1, “NOVEL ORGANIC ELECTROLUMINESCENT MATERIAL, ORGANIC ELECTROLUMINESCENT ELEMENT EMPLOYING THE SAME, AND THIN-FILM-FORMING SOLUTION FOR ORGANIC ELECTROLUMINESCENCE” (IDEMITSU KOSAN CO., LTD., priority 2005, dated 2006).

Test: Ionization potential
Type: physicochemical
Settings: not given

Compound	Ionization potential
CCCCCCCCC1(CCCCCCCC)c2cc(N(c3ccccc3)c3ccc(-c4ccc(N(c5ccc(-c6ccccc6)cc5)c5ccc(-c6ccccc6)cc5)cc4)cc3)ccc2-c2ccc(N(c3ccccc3)c3ccc(-c4ccc(N(c5ccc(-c6ccccc6)cc5)c5ccc(-c6ccccc6)cc5)cc4)cc3)cc21 [Compound 10]	5.14 eV

Test: Solubility in toluene
Type: physicochemical
Settings: 1 % by mass in toluene
From the text: A preparation of 1 % by mass toluene solution was tried employing Compound C below instead of Compound 1 in accordance with the same procedures as those conducted in Example 1.
A preparation of 1 % by mass toluene solution was tried employing Compound D below instead of Compound 1 in accordance with the same procedures as those conducted in Example 1.

Compound	Preparation of 1 % by mass toluene solution
c1ccc(N(c2ccc(-c3ccc(N(c4ccccc4)c4cccc5ccccc45)cc3)cc2)c2cccc3ccccc23)cc1 [Compound C, reference compound]	did not dissolve in toluene
c1ccc(-c2ccc(N(c3ccc(-c4ccccc4)cc3)c3ccc(-c4ccc(N(c5ccc(-c6ccccc6)cc5)c5ccc(-c6ccccc6)cc5)cc4)cc3)cc2)cc1 [Compound D, reference compound]	did not dissolve in toluene

Same assay, conditions: toluene; soluble in an amount of ... or more

Compound	Solubility (toluene)
CC1(C)c2ccccc2-c2ccc(N(c3ccccc3)c3ccc(-c4ccc(N(c5ccccc5)c5ccc(-c6cccc(-c7cccc(-c8ccc(N(c9ccccc9)c9ccc(-c%10ccc(N(c%11ccccc%11)c%11ccc%12c(c%11)C(C)(C)c%11ccccc%11-%12)cc%10)cc9)cc8)c7)c6)cc5)cc4)cc3)cc21 [Compound 9]	≥ 1 wt %
CCC(C)c1ccc(N(c2ccc(-c3ccc(-c4cccc(-c5ccc(-c6ccc(N(c7ccc(-c8ccc(N(c9ccccc9)c9ccccc9)cc8)cc7)c7ccc(C(C)CC)cc7)cc6)cc5)c4)cc3)cc2)c2ccc(-c3ccc(N(c4ccccc4)c4ccccc4)cc3)cc2)cc1 (centres unmarked) [Compound 8]	≥ 1 wt %
CC1(C)c2ccccc2-c2ccc(N(c3ccccc3)c3ccc(-c4ccc(N(c5ccccc5)c5ccc(-c6cccc(-c7ccc(N(c8ccccc8)c8ccc(-c9ccc(N(c%10ccccc%10)c%10ccc%11c(c%10)C(C)(C)c%10ccccc%10-%11)cc9)cc8)cc7)c6)cc5)cc4)cc3)cc21 [Compound 2]	≥ 1 wt %
CCC(C)c1ccc(N(c2ccc(-c3ccc(N(c4ccccc4)c4ccc5c(c4)C(C)(C)c4ccccc4-5)cc3)cc2)c2ccc(-c3cccc(-c4ccc(N(c5ccc(-c6ccc(N(c7ccccc7)c7ccc8c(c7)C(C)(C)c7ccccc7-8)cc6)cc5)c5ccc(C(C)CC)cc5)cc4)c3)cc2)cc1 (centres unmarked) [Compound 3]	≥ 1 wt %
CCCCCCCCC1(CCCCCCCC)c2cc(N(c3ccccc3)c3ccc(-c4ccc(N(c5ccccc5)c5ccc6c(c5)C(C)(C)c5ccccc5-6)cc4)cc3)ccc2-c2ccc(N(c3ccccc3)c3ccc(-c4ccc(N(c5ccccc5)c5ccc6c(c5)C(C)(C)c5ccccc5-6)cc4)cc3)cc21 [Compound 4]	≥ 1 wt %
c1ccc(N(c2ccc(-c3ccc(N(c4ccccc4)c4cccc5ccccc45)cc3)cc2)c2ccc(-c3cccc(-c4cccc(-c5ccc(N(c6ccccc6)c6ccc(-c7ccc(N(c8ccccc8)c8cccc9ccccc89)cc7)cc6)cc5)c4)c3)cc2)cc1 [Compound 5]	≥ 1 wt %
CCC(C)c1ccc(N(c2ccc(-c3ccc(-c4cccc(-c5cccc(-c6ccc(-c7ccc(N(c8ccc(-c9ccc(N(c%10ccc(-c%11ccccc%11)cc%10)c%10ccc(-c%11ccccc%11)cc%10)cc9)cc8)c8ccc(C(C)CC)cc8)cc7)cc6)c5)c4)cc3)cc2)c2ccc(-c3ccc(N(c4ccc(-c5ccccc5)cc4)c4ccc(-c5ccccc5)cc4)cc3)cc2)cc1 (centres unmarked) [Compound 7]	≥ 1 wt %
CCCCCCCCC1(CCCCCCCC)c2cc(N(c3ccccc3)c3ccc(-c4ccc(N(c5ccc(-c6ccccc6)cc5)c5ccc(-c6ccccc6)cc5)cc4)cc3)ccc2-c2ccc(N(c3ccccc3)c3ccc(-c4ccc(N(c5ccc(-c6ccccc6)cc5)c5ccc(-c6ccccc6)cc5)cc4)cc3)cc21 [Compound 10]	≥ 5 wt %
